According to PubChem BioAssay (NCI):
“And” between values parts separate entries of the source, which are not always exact repeats. Equal entries are not always repeated.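 Method: 48-hour compound exposure of cells in 96-well plates, five concentrations, linear interpolation of endpoints. Here, GI50 denotes the concentration required for 50% inhibition of growth. TGI marks complete inhibition of growth.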

Legend:
Test in all cases: DTP human tumour cell line panel, 48 h
CAKI-1 renal = test system: CAKI-1 renal
EKVX NSCLC = test system: EKVX NSCLC
HCT-15 colon = test system: HCT-15 colon
MOLT-4 leukemia = test system: MOLT-4 leukemia
NCI-H226 lung = test system: NCI-H226 lung
NCI/ADR-RES ovarian = test system: NCI/ADR-RES ovarian
SNB-19 CNS = test system: SNB-19 CNS
TK-10 renal = test system: TK-10 renal
UACC-62 melanoma = test system: UACC-62 melanoma
UO-31 renal = test system: UO-31 renal

Compound | TGI (CAKI-1 renal) | GI50 (EKVX NSCLC) | TGI (EKVX NSCLC) | GI50 (HCT-15 colon) | TGI (HCT-15 colon) | GI50 (MOLT-4 leukemia) | TGI (MOLT-4 leukemia) | GI50 (NCI-H226 lung) | TGI (NCI-H226 lung) | GI50 (NCI/ADR-RES ovarian) | TGI (NCI/ADR-RES ovarian) | GI50 (SNB-19 CNS) | TGI (SNB-19 CNS) | GI50 (TK-10 renal) | TGI (TK-10 renal) | GI50 (UACC-62 melanoma) | TGI (UACC-62 melanoma) | TGI (UO-31 renal) | GI50 (CAKI-1 renal) [µM] | GI50 (UO-31 renal)
COc1cc2ncnc(Nc3ccc(F)c(Cl)c3)c2cc1NC(=O)/C=C/CN1CCCCC1 | 2.81 µM and 3.43 µM | 0.00274 µM | > 10 µM | 1.07 µM and 1.12 µM | 4.6 µM and 3.81 µM | 1.41 µM and 1.59 µM | 4.97 µM and 7.26 µM | 2.91 µM and 4.52 µM | 19.3 µM and > 10 µM | 1.48 µM and 1.12 µM | 7.15 µM and 6.37 µM | 2.04 µM and 1.86 µM | 17 µM and > 10 µM | < 0.01 µM and 0.00151 µM | 1.68 µM and 2.3 µM | 1.61 µM and 1.73 µM | 3.02 µM and 3.23 µM | 2.23 µM and 1.99 µM |  | 
CN1C(=O)N(C)C2C1NN=c1s/c(=C\c3ccc(F)cc3)c(=O)n12 (stereo not given) | > 100 µM | 4.02 µM | > 100 µM | 0.915 µM | > 100 µM | 3.07 µM | > 100 µM | 8.02 µM | > 100 µM | 1.94 µM | > 100 µM | 5.57 µM | > 100 µM | 6.06 µM | > 100 µM | 3.61 µM | > 100 µM | > 100 µM | 1.68 | 3.9 µM
O=C1C(c2ccccc2)=[N+]([O-])c2ccccc21 |  |  | 35.4 µM |  | 37.9 µM |  | 47.2 µM |  | 37.8 µM |  | 36.3 µM |  | 37.5 µM |  | 37.4 µM |  | 29.5 µM | 29.7 µM |  | 
O=c1cccc(C2CC(CO)C3CCCCN3C2)[nH]1 (stereo not given) | > 100 µM |  | > 100 µM |  | > 100 µM |  | > 100 µM |  | > 100 µM |  | > 100 µM |  | > 100 µM |  | > 100 µM |  | > 100 µM | > 100 µM |  | 
COc1ccc(N2C(=O)[C@H]3CC(C)c4c([nH]c5ccccc45)[C@H]3C2=O)cc1 (stereo not given in full) | 27.3 µM |  | > 95 µM |  | > 100 µM |  | 49.4 µM |  | 38.3 µM |  | 12.4 µM |  | > 71.8 µM |  | 52.7 µM |  | 22.7 µM | 83.8 µM |  | 
CCN(CC)C(=S)Oc1cc2oc(=O)cc(C)c2cc1Cl | > 100 µM |  | > 100 µM |  | > 100 µM |  | > 100 µM |  | > 100 µM |  | > 100 µM |  | > 100 µM |  | > 100 µM |  | 73.7 µM | > 100 µM |  | 
CC[PH+](CC)CC.O=COC1OC([S-])C(OC=O)C(OC=O)C1OC=O.[Au+] (stereo not given) | 3.08 µM | 1.74 µM | 3.32 µM | 1.14 µM | 2.56 µM | 2.2 µM | 7.61 µM | 1.96 µM | 4.23 µM | 2.21 µM | 5.03 µM | 1.34 µM | 2.61 µM | 1.74 µM | 3.39 µM | 1.06 µM | 2.31 µM | 3.05 µM | 1.71 | 1.69 µM
COc1ccc2cc(-c3c(-c4ccncc4)nc(-c4ccc(S(C)(=O)=O)cc4C)n3C)ccc2c1 | > 25 µM | 7.45 µM | > 25 µM | 7.97 µM | > 25 µM | 6.91 µM | > 25 µM | 4.17 µM | > 20.4 µM | 8.67 µM | > 25 µM | 9.04 µM | > 25 µM | 5.82 µM | 23.2 µM | 7.95 µM | > 25 µM | 20.2 µM | 8.73 | 4.4 µM
C/C=C1\NC(=O)[C@H]2CSSCCC=C[C@H](CC(=O)N[C@H](C(C)C)C(=O)N2)OC(=O)[C@H](C(C)C)NC1=O | 0.0772 µM and 0.0244 µM and < 0.0104 µM | < 0.01 µM |  | 0.203 µM and 0.0551 µM | 3.75 µM and 1.59 µM | < 0.01 µM |  | < 0.01 µM | 0.268 µM and 0.0317 µM and < 0.0312 µM | 1.98 µM and 0.676 µM | 27.7 µM and 11.2 µM | < 0.01 µM | 0.0301 µM and 0.0538 µM | < 0.01 µM |  | < 0.01 µM | < 0.01 µM and 0.0113 µM |  | < 0.0339 | 0.026 µM and 0.0145 µM
C=CC(=O)Nc1cc2c(Nc3ccc(F)c(Cl)c3)ncnc2cc1OCCCN1CCOCC1 | 2.67 µM and > 10 µM | 0.0262 µM and 0.0367 µM | 12.4 µM and > 10 µM | 1.4 µM and 2.17 µM | 3.6 µM and > 6.04 µM | 1.85 µM and 2.87 µM | 5.18 µM and > 9.25 µM | 2.08 µM and > 6.11 µM | 5.59 µM and > 10 µM | 1.71 µM and 2.36 µM | 8.79 µM and > 10 µM | 2.53 µM and > 6.7 µM | 14.7 µM and > 10 µM | < 0.01 µM and 0.00217 µM | 9.6 µM and 6.78 µM | 1.77 µM and 2.19 µM | 4.48 µM and > 7.71 µM | 12.9 µM and > 8.65 µM |  | 0.288 µM and 0.103 µM
O=C1c2cc(Cl)ccc2-c2c1c1ccc([N+](=O)[O-])cc1c(=O)n2CCCBr | 19.3 µM | > 100 µM | > 100 µM | 31.2 µM | > 100 µM | 1.84 µM | 8.04 µM | 11.5 µM | > 100 µM | 5.01 µM | > 100 µM | 3.74 µM | > 100 µM | 61.9 µM | > 100 µM | 3.45 µM | 39.8 µM | 31 µM | 1.72 | 2.64 µM
Cc1cc2c(cc1Cl)SC1=NN(C)C(N(C)C)N1S2(=O)=O (stereo not given) | > 100 µM | > 100 µM | > 100 µM | > 100 µM | > 100 µM | > 100 µM | > 100 µM | > 100 µM | > 100 µM | > 100 µM | > 100 µM | > 100 µM | > 100 µM | > 100 µM | > 100 µM | > 100 µM | > 100 µM | > 100 µM | > 100 | 98.1 µM
COc1cc(C(=O)Nc2cc3c(cc2Oc2cc(C)cc(C)c2)C(=O)N(C)[C@@H](CC(=O)N(C)O)C(=O)N3)c(Br)c(OC)c1OC | 2.58 µM | < 0.00333 µM | 0.0201 µM | 0.144 µM | 2.04 µM | < 0.00333 µM | < 0.00333 µM | < 0.00333 µM | 0.0128 µM | 0.777 µM | 7.34 µM | < 0.00333 µM | 0.00576 µM | 0.00526 µM | 0.0264 µM | < 0.00333 µM | < 0.00333 µM | 0.413 µM | 0.496 | 0.0255 µM
COc1ccc(C2=NN(C=O)C(c3cccc(Nc4ccnc5cc(Cl)ccc45)c3)C2)cc1 (stereo not given) |  | 2.8 µM | > 100 µM | 2.13 µM | 17 µM | 2.37 µM | 11.9 µM | 3.13 µM | > 100 µM | 1.66 µM | 31.7 µM | 5.11 µM | > 100 µM | 4.24 µM | 20.2 µM | 2.41 µM | 20.6 µM | 64.6 µM |  | 3.25 µM
